Test results published in patent US20050159345A1 (Boehringer Ingelheim International GmbH, priority 2002, published 2005).
pIC50: −log10 of the molar value.

Tests used:
[1] = target: T1, HCV 3a NS3-NS4A heterodimer protein (UniProt Q81258); assay: In vitro HCV NS3 protease assay (fluorogenic depsipeptide), genotype 3a; format: biochemical, HCV genotype 3a; conditions: read-out: IC50 HCV-3a; HCV 3a NS3-NS4A protease
T1 construct: fused on or other part: 28 extra N-terminal residues with a hexahistidine tag and an rTEV cleavage site
T1 sequence (Q81258 1033-1663): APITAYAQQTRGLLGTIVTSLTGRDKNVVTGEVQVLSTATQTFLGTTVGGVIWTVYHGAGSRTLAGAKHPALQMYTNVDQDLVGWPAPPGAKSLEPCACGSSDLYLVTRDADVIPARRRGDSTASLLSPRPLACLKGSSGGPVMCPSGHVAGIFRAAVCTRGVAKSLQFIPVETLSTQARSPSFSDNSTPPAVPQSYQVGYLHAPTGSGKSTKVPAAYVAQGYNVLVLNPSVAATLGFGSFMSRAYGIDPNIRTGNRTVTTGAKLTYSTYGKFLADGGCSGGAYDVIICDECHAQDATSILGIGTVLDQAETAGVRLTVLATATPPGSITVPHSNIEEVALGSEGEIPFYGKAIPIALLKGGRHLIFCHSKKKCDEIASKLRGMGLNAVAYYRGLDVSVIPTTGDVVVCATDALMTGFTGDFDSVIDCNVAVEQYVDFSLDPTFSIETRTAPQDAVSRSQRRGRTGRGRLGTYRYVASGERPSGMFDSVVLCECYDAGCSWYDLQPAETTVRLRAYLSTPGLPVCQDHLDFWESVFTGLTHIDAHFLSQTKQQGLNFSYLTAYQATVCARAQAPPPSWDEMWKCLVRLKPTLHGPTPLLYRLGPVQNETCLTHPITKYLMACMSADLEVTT
Text: (§1) The NS3-NS4 protease genes of HCV genotypes 2b and 3a were amplified from RNA isolated from clinical samples of HCV-infected patients obtained from Dr. G. Steinmann (Germany) using RT-PCR. The primers used for the RT-PCR were 5′[…]3′ (SEQ ID No. 6) as the forward and 5′[…]3′ (SEQ ID No.7) as the reverse primer for the NS3-NS4A of HCV genotype 2b and; 5′[…]3′ (SEQ ID No. 8) as the forward and 5′[…]3′ (SEQ ID No. 9) as the reverse primer for HCV genotype 3a. Each primer contained a unique restriction site for subcloning the fragment in the bacterial expression vector pET11a. The cloning into the vector generated a recombinant fusion protein containing an additional N-terminal 28 residues that comprised a hexahistidine tag and a rTEV protease cleavage site. The recombinant plasmids were used to transform the bacterial strain BL21 DE3 pLysS for protein expression and recombinant protein expression was induced by the addition of IPTG. Following expression, the cells were collected by centrifugation at 4° C. and the cell pellet lysed in a buffer containing 50 mM sodium phosphate, 0.5M NaCl, 40% glycerol, 1.5% NP-40, 0.5% Triton X-100 and the soluble protein fraction was passed through a 5ml HiTrap chelating affinity column as described above. A poly(U)-Sepharose purification step can optionally be conducted in order to remove degradation products and contaminants. […]
(§2) The fluorescence was monitored using the BMG POLARstar Galaxy 96-well plate reader with an excitation filter of 320 nm, and an emission filter of 405 nm. The level of inhibition (% inhibition) of each well containing test compound was calculated with the following equation (FU=fluorescence unit): [formula]
(§3) The calculated % inhibition values were then used to determine IC50, slope factor (n) and maximum inhibition (Imax) by the non-linear regression routine NLIN procedure of SAS using the following equation: [formula] […]

[2] = target: T2, HCV 1b NS3-NS4A heterodimer protein (UniProt P26662); assay: In vitro HCV NS3 protease assay (fluorogenic depsipeptide), genotype 1b; format: biochemical, HCV genotype 1b; conditions: read-out: IC50 HCV-1b; HCV 1b NS3-NS4A protease
T2 construct: fused on or other part: 28 extra N-terminal residues with a hexahistidine tag and an rTEV cleavage site
Text: For production of the HCV genotype 1b NS3-NS4A heterodimer protein, a full-length HCV cDNA was cloned by RT-PCR using RNA extracted from the serum of an HCV genotype 1b infected individual (provided by Dr. Bernard Willems, Hôpital St-Luc, Montréal, Canada). […] For HCV genotype 1a, the DNA encoding NS3-NS4A heterodimer protein was PCR-amplified (forward primer: 5′[sequence]3′ (SEQ ID No.3); reverse primer: 5′[sequence]3′ (SEQ ID No.4)) from the HCV genotype la strain H77 (provided by ViroPharma Inc., Exton, Pa., U.S.) and subcloned as described above. The cloning into the pFastBac™ HTa baculovirus expression vector generated a recombinant fusion protein containing an additional N-terminal 28 residues that comprised a hexahistidine tag and a rTEV protease cleavage site. The Bac-to-Bac™ baculovirus expression system (Gibco/BRL) was used to produce the recombinant baculovirus for protein expression.
His-tagged NS3-NS4A heterodimer protease was expressed by infecting Sf21 insect cells (Invitrogen) at a density of 10^6 cells/mL with the recombinant baculovirus at a multiplicity of infection of 0.1-0.2 at 27° C. The infected culture was harvested 48 to 64 h later by centrifugation at 4° C. The cell pellet was homogenized in 50 mM sodium phosphate, pH 7.5, 40% glycerol (w/v), 2 mM β-mercaptoethanol. His-NS3-NS4A heterodimer protease was then extracted from the cell lysate with 1.5% NP-40, 0.5% Triton X-100, 0.5M NaCl, and a DNase treatment. […]

[3] = target: T3, HCV 2b NS3-NS4A heterodimer protein (UniProt P26661); assay: In vitro HCV NS3 protease assay (fluorogenic depsipeptide), genotype 2b; format: biochemical, HCV genotype 2b; conditions: read-out: IC50 HCV-2b; HCV 2b NS3-NS4A protease
T3 construct: fused on or other part: 28 extra N-terminal residues with a hexahistidine tag and an rTEV cleavage site
T3 sequence (P26661 1031-1661): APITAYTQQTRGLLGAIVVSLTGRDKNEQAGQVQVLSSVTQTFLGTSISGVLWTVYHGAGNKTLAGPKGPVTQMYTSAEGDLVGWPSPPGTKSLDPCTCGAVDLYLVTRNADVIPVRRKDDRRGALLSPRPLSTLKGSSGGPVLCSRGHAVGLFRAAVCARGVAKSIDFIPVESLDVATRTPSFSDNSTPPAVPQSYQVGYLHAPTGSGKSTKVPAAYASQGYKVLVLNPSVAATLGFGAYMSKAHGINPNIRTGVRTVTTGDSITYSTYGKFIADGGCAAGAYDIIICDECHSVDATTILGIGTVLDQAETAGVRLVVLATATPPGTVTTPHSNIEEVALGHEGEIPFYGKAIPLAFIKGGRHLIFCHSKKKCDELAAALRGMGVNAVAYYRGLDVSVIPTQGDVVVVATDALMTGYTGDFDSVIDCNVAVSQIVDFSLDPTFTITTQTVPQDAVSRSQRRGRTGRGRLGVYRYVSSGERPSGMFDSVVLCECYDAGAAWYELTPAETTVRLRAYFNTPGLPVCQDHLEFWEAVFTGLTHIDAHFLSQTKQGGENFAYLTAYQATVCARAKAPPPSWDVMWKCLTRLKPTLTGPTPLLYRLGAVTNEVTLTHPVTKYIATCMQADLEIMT
Text: as §1, §2, §3

T2 sequence (P26662 1027-1657, one chain of several): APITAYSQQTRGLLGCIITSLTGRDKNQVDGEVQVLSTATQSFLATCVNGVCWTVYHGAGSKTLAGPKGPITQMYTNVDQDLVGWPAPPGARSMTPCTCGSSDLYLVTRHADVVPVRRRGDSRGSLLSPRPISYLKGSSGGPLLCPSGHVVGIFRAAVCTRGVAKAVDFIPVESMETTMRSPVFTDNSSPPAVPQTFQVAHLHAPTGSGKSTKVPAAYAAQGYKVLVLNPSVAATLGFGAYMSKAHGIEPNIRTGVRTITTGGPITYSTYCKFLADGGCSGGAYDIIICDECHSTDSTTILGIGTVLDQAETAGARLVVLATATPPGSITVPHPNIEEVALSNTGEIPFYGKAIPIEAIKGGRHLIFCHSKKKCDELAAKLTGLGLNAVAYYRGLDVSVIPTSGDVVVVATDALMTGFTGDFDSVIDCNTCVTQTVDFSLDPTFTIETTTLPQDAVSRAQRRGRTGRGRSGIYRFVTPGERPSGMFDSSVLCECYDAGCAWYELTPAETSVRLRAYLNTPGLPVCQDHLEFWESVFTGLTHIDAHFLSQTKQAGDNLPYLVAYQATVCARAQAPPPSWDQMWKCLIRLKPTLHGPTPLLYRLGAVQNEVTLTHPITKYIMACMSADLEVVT

SMILES | pIC50 [1] | pIC50 [2] | pIC50 [3]
COc1ccc2c(O[C@@H]3C[C@H]4C(=O)N[C@]5(C(=O)O)CC5/C=C\CCCCC[C@H](NC(=O)OC(C)(C)C)C(=O)N4C3)cc(-c3ccccc3)nc2c1 (stereo partly drawn) [II] | 6.44 | 8.05 | 6.00
COc1ccc2c(O[C@@H]3C[C@H]4C(=O)N[C@]5(C(=O)O)CC5/C=C\CCCCC[C@H](NC(=O)OC(C)(C)C)C(=O)N4C3)cc(-c3csc(NC(C)=O)n3)nc2c1 (stereo partly drawn) [III] | 6.72 | 8.38 | 6.29
COc1ccc2c(O[C@@H]3C[C@H]4C(=O)N[C@]5(C(=O)O)CC5/C=C\CCCCC[C@H](NC(=O)OC5CCCC5)C(=O)N4C3)cc(-c3csc(NC(C)C)n3)nc2c1 (stereo partly drawn) [IV] | 6.55 | 8.47 | 6.59
